Reference: patent US7943296B2, “Methods of screening using a natriuretic peptide receptor” (Oregon Health & Science University, priority 2005, dated 2011)

Experiments:
NPRA = experiment: [35S]ATPγS incorporation into NPRA (receptor phosphorylation) in CFs; type: cell-based, rat; conditions: ANP 5 minutes, KT5823 1 μM or expressed fragment
Method: To identify receptor phosphorylation by PKG, ^[35S]ATPγS was employed as a substrate. [^35S] incorporation into NPRA was analyzed according to the method previously described (Joubert et al., Biochem. 40:11096-105, 2001). Briefly, the treated CFs were scraped into 100 μl ice-cold incubation buffer (25 mM HEPES, pH 7.4, 50 mM NaCl, 5 mM MgCl2, 0.2 μM okadaic acid, 1 mM Na3VO4, 10 mM NaH2PO4, 10 mM NaF, and protease inhibitors (complete mini-tablet, Roche) and lysed by repeated passage through a 22-gauge needle. Lysates were added to incubation buffer containing 1 μCi [^35S]ATPγS (specific activity >1000 Ci/mmol), final volume of 200 μl, incubated at 37° C. for 30 minutes. Proteins were analyzed by SDS-PAGE (7.5%) and subsequent autoradiography.

[1] = tested on: cardiac fibroblasts (CFs); experiment: Vimentin localisation in CFs by immunofluorescence microscopy; type: cell-based, rat; conditions: fragment expressed
Method: NP's ability to inhibit growth factor-induced CF differentiation into myofibroblasts was determined as follows. CFs were transiently transfected with insertless pcDNA3 vector or pcDNA3 encoding sNRF^(806-900) (see Example 7). The transfected CFs were then treated for 48 hours with 10 ng/ml basic fibroblast growth factor (FGF; Sigma-Aldrich #F0291) in the presence or absence of 100 nM ANP. Alpha-smooth muscle actin (α-SMA) protein expression, the principal marker of CF differentiation, was assessed by Western blotting and immunofluorescence microscopy. Vimentin staining was used as a loading control because it is expressed equally in fibroblasts and transdifferentiated myofibroblasts.
For the immunofluorescence microscopy, slide wells were treated as described in Example 7 and incubated with anti-α-SMA and anti-vimentin antibody as well as phalloidin to stain for actin. Briefly, cells were rinsed twice with phosphate-buffered saline (PBS) and fixed with 3.7% formaldehyde in PBS for 10 minutes. After fixation, cells were rinsed with PBS and permeabilized with 0.3% Triton X-100 in PBS for 10 minutes and blocked for 1 hour in 1% horse serum, 0.2% bovine serum albumin in PBS. Cells were then incubated with primary α-SMA antibody (ABCAM ab7817) and primary vimentin antibody (ABCAM ab7783) diluted in blocking solution for 1 hour and washed three times with blocking solution for 5 minutes. […]

PKG = biological target: T1, PKG (Rattus norvegicus, UniProt A9LNM8); experiment: Co-immunoprecipitation of PKG with FLAG-tagged NPRA fragments in primary CFs; type: binding; conditions: 5'-FLAG-tagged fragment in transfected CFs, anti-FLAG M2 affinity gel
T1 construct: endogenous in cells; host or cells: primary neonatal rat cardiac fibroblasts transfected with 5'-FLAG sNRF fragments
T1 sequence (A9LNM8 1-671): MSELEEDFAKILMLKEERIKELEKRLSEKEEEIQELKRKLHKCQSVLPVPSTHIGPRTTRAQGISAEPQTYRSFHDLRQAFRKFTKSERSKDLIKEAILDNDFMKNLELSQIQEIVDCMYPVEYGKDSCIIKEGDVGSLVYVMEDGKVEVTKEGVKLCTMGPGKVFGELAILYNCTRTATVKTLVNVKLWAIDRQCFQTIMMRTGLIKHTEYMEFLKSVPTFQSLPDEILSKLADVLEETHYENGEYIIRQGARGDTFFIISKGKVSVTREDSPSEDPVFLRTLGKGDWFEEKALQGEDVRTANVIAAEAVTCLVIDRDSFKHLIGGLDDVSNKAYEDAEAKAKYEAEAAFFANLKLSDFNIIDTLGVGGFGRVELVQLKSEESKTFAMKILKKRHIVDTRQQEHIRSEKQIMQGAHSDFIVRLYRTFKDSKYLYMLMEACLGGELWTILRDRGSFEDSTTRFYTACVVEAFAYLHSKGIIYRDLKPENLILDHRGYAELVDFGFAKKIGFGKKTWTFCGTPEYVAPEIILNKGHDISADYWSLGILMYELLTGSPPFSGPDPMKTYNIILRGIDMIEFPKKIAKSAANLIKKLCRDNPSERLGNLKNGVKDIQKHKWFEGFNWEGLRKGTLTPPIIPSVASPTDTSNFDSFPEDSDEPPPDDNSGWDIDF
Method: Neonatal rat ventricular fibroblasts (CFs) were cultured from 1 to 2-day-old Harlan Sprague-Dawley rats as described previously (Simpson, Circulation Res. 56:884-94, 1985). Briefly, ventricles were dissected free from atria and quartered. Following dissociation in ADS buffer containing 1.5 mg/ml trypsin (Gibco #27250-018) and 1% DNase solution (2 mg/ml DNase type II, 150 mM NaCl) with serum neutralization the collected cells were pre-incubated in media at 37° C. for 90 minutes to allow CF attachment to the bottom of culture dishes. CFs were incubated in plating media for 48 hours, divided into 6-well culture plates or dual-well chamberslides, and grown to 50% confluency in DMEM with 10% FBS prior to use.
CFs were transiently transfected with nucleic acid molecules encoding sNRF^(806-1061), sNRF^(806-900), or sNRF^(806-860) using routine methods. Briefly, PCR-generated, 5′-FLAG epitope-tagged sNRFs were subcloned into the BamHI and EcoRI sites of pCDNA3 (Invitrogen) and sequenced to verify construction accuracy. […]
The ability of the NPRA fragments to immunoprecipitate PKG was determined in the primary CF cells transfected with the 5′-FLAG epitope-tagged NPRA fragments as follows. […] Bound antibody was detected with chemiluminescent substrate (Western Lightning ECL, PerkinElmer Life Sciences).

## sNRF^(806-900): intracellular NPRA fragment, residues 806-900, excludes the cyclase-containing domain; shortest fragment observed to associate with PKG
NPRA
  ANP-induced NPRA phosphorylation: reduced ANP-induced NPRA phosphorylation to control levels
[1]
  ANP-associated nuclear to cytosolic translocation of vimentin: inhibited
PKG
  co-immunoprecipitation of PKG: co-immunoprecipitated PKG
